From patent US12655175B2, “C17, C20, and C21 substituted neuroactive steroids and their methods of use” (Sage Therapeutics, LLC, priority 2016, dated 2026)

Target: GABAA receptor
Assay: Steroid inhibition of [35S]-TBPS binding
Conditions: rat brain cortical membranes, 3 nM [35S]-TBPS, in the presence of 5 mM GABA
Protocol: Steroid Inhibition of TBPS Binding
Briefly, cortices are rapidly removed following decapitation of carbon dioxide-anesthetized Sprague-Dawley rats ([…]). The cortices are homogenized in 10 volumes of ice-cold 0.32 M sucrose using a glass/teflon homogenizer and centrifuged at 1500×g for 10 min at 4° C. The resultant supernatants are centrifuged at 10,000×g for 20 min at 4° C. to obtain the P2 pellets. The P2 pellets are resuspended in 200 mM NaCl/50 mM Na—K phosphate pH 7.4 buffer and centrifuged at 10,000×g for 10 min at 4° C. This washing procedure is repeated twice and the pellets are resuspended in 10 volumes of buffer. Aliquots ([…]) of the membrane suspensions are incubated with 3 nM [^35S]-TBPS and […] aliquots of test drug dissolved in dimethyl sulfoxide (DMSO) (final 0.5%) in the presence of 5 mM GABA. The incubation is brought to a final volume of 1.0 mL with buffer. […] Following a 90 min incubation at room temp, the assays are terminated by filtration through glass fiber filters (Schleicher and Schuell No. 32) using a cell harvester (Brandel) and rinsed three times with ice-cold buffer. Filter bound radioactivity is measured by liquid scintillation spectrometry. Non-linear curve fitting of the overall data for each drug averaged for each concentration is done using Prism (GraphPad).
Various compounds are or can be screened to determine their potential as modulators of [^35S]-TBPS binding in vitro. These assays are or can be performed in accordance with the above discussed procedures.

| SMILES | IC50 [nM] |
| --- | --- |
| COC[C@]12CC[C@](O)(C(F)(F)F)C[C@H]1CC[C@H]1[C@@H]3CC[C@H](C(=O)CNc4ccccc4)[C@@]3(C)CC[C@@H]12 [Compound 77] | 10 to 50 |
| COC[C@]12CC[C@](O)(C(F)(F)F)C[C@H]1CC[C@H]1[C@@H]3CC[C@H](C(=O)Nc4ccccc4)[C@@]3(C)CC[C@@H]12 [Compound 78] | 50 to 100 |
| COC[C@]12CC[C@](O)(C(F)(F)F)C[C@H]1CC[C@H]1[C@@H]3CC[C@H](C(=O)N(C)Cc4ccccc4)[C@@]3(C)CC[C@@H]12 [Compound 79] | 100 to 500 |
| COC[C@]12CC[C@](O)(C(F)(F)F)C[C@H]1CC[C@H]1[C@@H]3CC[C@H](C(=O)NC4CCCCC4)[C@@]3(C)CC[C@@H]12 [Compound 80] | > 500 |
| CCOC[C@@]1(O)CC[C@H]2[C@H](CC[C@@H]3[C@@H]2CC[C@]2(C)[C@@H](C(=O)CN(C)c4ccccc4)CC[C@@H]32)C1 [Compound 83] | 100 to 500 |
| CCOC[C@@]1(O)CC[C@H]2[C@H](CC[C@@H]3[C@@H]2CC[C@]2(C)[C@@H](C(=O)CNc4ccccc4)CC[C@@H]32)C1 [Compound 84] | 10 to 50 |
| CCOC[C@@]1(O)CC[C@H]2[C@@H](CC[C@@H]3[C@@H]2CC[C@]2(C)[C@@H](C(=O)CN(C)c4ccccc4)CC[C@@H]32)C1 [Compound 85] | > 500 |
| CCOC[C@@]1(O)CC[C@H]2[C@@H](CC[C@@H]3[C@@H]2CC[C@]2(C)[C@@H](C(=O)CNc4ccccc4)CC[C@@H]32)C1 [Compound 86] | 100 to 500 |
| C[C@@]1(O)CC[C@@]2(C)[C@@H](CC[C@@H]3[C@@H]2CC[C@]2(C)[C@@H](Nc4ccccc4)CC[C@@H]32)C1 [Compound 87] | 100 to 500 |
| CN(c1ccccc1)[C@H]1CC[C@H]2[C@@H]3CC[C@H]4C[C@](C)(O)CC[C@]4(C)[C@H]3CC[C@]12C [Compound 88] | > 500 |
| C[C@@]1(O)CC[C@@]2(C)[C@@H](CC[C@@H]3[C@@H]2CC[C@]2(C)[C@@H](Nc4ccc(F)cc4)CC[C@@H]32)C1 [Compound 89] | 100 to 500 |
| C[C@@]1(O)CC[C@@]2(C)[C@@H](CC[C@@H]3[C@@H]2CC[C@]2(C)[C@@H](Nc4cccc(F)c4)CC[C@@H]32)C1 [Compound 90] | 100 to 500 |
| C[C@@]1(O)CC[C@@]2(C)[C@@H](CC[C@@H]3[C@@H]2CC[C@]2(C)[C@@H](Nc4ccccc4F)CC[C@@H]32)C1 [Compound 91] | > 500 |
| C[C@@]1(O)CC[C@@]2(C)[C@@H](CC[C@@H]3[C@@H]2CC[C@]2(C)[C@@H](NCc4ccccc4)CC[C@@H]32)C1 [Compound 92] | > 500 |
| C[C@@]1(O)CC[C@@]2(C)[C@@H](CC[C@@H]3[C@@H]2CC[C@]2(C)[C@@H](N)CC[C@@H]32)C1 [Compound 93] | > 500 |
| C[C@@]1(O)CC[C@@]2(C)[C@@H](CC[C@@H]3[C@@H]2CC[C@]2(C)[C@@H](NC(=O)c4ccccc4)CC[C@@H]32)C1 [Compound 94] | > 500 |
| CC(=O)N[C@H]1CC[C@H]2[C@@H]3CC[C@H]4C[C@](C)(O)CC[C@]4(C)[C@H]3CC[C@]12C [Compound 95] | > 500 |
| CN([C@H]1CC[C@H]2[C@@H]3CC[C@H]4C[C@](C)(O)CC[C@]4(C)[C@H]3CC[C@]12C)S(=O)(=O)c1ccccc1 [Compound 96] | > 500 |
| C[C@@]1(O)CC[C@@]2(C)[C@@H](CC[C@@H]3[C@@H]2CC[C@]2(C)[C@@H](NS(C)(=O)=O)CC[C@@H]32)C1 [Compound 97] | > 500 |
| CN([C@H]1CC[C@H]2[C@@H]3CC[C@H]4C[C@](C)(O)CC[C@]4(C)[C@H]3CC[C@]12C)S(C)(=O)=O [Compound 98] | > 500 |

| SMILES | IC50 [nM] |
| --- | --- |
| COC(=O)N(C)[C@H]1CC[C@H]2[C@@H]3CC[C@H]4C[C@](C)(O)CC[C@]4(C)[C@H]3CC[C@]12C [Compound 99] | > 500 |
| C[C@@]1(O)CC[C@H]2[C@H](CC[C@@H]3[C@@H]2CC[C@]2(C)[C@@H](c4ccccc4)CC[C@@H]32)C1 [Compound 101] | 100 to 500 |
| Cc1ccc([C@H]2CC[C@H]3[C@@H]4CC[C@@H]5C[C@](C)(O)CC[C@@H]5[C@H]4CC[C@]23C)cc1 [Compound 102] | 100 to 500 |
| C[C@@]1(O)CC[C@H]2[C@H](CC[C@@H]3[C@@H]2CC[C@]2(C)[C@@H](c4ccncc4)CC[C@@H]32)C1 [Compound 103] | 10 to 50 |
| C[C@@]1(O)CC[C@H]2[C@H](CC[C@@H]3[C@@H]2CC[C@]2(C)[C@@H](c4cncnc4)CC[C@@H]32)C1 [Compound 104] | 50 to 100 |
| C[C@@]1(O)CC[C@H]2[C@H](CC[C@@H]3[C@@H]2CC[C@]2(C)[C@@H](c4cccc(C#N)c4)CC[C@@H]32)C1 [Compound 105] | 10 to 50 |
| C[C@@]1(O)CC[C@H]2[C@H](CC[C@@H]3[C@@H]2CC[C@]2(C)[C@@H](c4cccnc4)CC[C@@H]32)C1 [Compound 106] | 10 to 50 |
| C[C@@]1(O)CC[C@H]2[C@H](CC[C@@H]3[C@@H]2CC[C@]2(C)[C@@H](C4CCOCC4)CC[C@@H]32)C1 [Compound 107] | > 500 |
| C[C@@]1(O)CC[C@H]2[C@H](CC[C@@H]3[C@@H]2CC[C@]2(C)[C@@H](c4ccccn4)CC[C@@H]32)C1 [Compound 108] | 100 to 500 |
| C[C@@]1(O)CC[C@H]2[C@H](CC[C@@H]3[C@@H]2CC[C@]2(C)[C@@H](C4CCCC4)CC[C@@H]32)C1 [Compound 109] | > 500 |
| C[C@@]1(O)CC[C@H]2[C@H](CC[C@@H]3[C@@H]2CC[C@]2(C)[C@@H](c4ccc(C#N)cc4)CC[C@@H]32)C1 [Compound 110] | 10 to 50 |
| Cn1cc([C@H]2CC[C@H]3[C@@H]4CC[C@@H]5C[C@](C)(O)CC[C@@H]5[C@H]4CC[C@]23C)cn1 [Compound 111] | 50 to 100 |
| C[C@@]1(O)CC[C@@]2(C)[C@@H](CC[C@@H]3[C@@H]2CC[C@]2(C)[C@@H](OCc4ccccc4)CC[C@@H]32)C1 [Compound 112] | > 500 |
| CO[C@H]1C[C@@]2(C)[C@@H](CC[C@@H]3[C@@H]2CC[C@]2(C)[C@@H]([N+](=O)[O-])CC[C@@H]32)C[C@@H]1O [Compound 118] | 10 to 50 |
| CO[C@H]1C[C@]2(C)[C@@H]([N+](=O)[O-])CC[C@H]2[C@@H]2CC[C@H]3C[C@H](O)[C@@H](OC)C[C@]3(C)[C@H]21 [Compound 119] | 10 to 50 |
| CO[C@H]1C[C@@]2(C)[C@@H](CC[C@@H]3[C@@H]2[C@@H](O)C[C@]2(C)[C@@H]([N+](=O)[O-])CC[C@@H]32)C[C@@H]1O [Compound 120] | 100 to 500 |
| CO[C@H]1C[C@@]2(C)[C@@H](CC[C@H]3[C@@H]4CC[C@H]([N+](=O)[O-])[C@@]4(C)CC(=O)[C@@H]32)C[C@@H]1O [Compound 121] | 100 to 500 |
| CCO[C@H]1C[C@@]2(C)[C@@H](CC[C@@H]3[C@@H]2[C@@H](O)C[C@]2(C)[C@@H]([N+](=O)[O-])CC[C@@H]32)C[C@@H]1O [Compound 122] | 100 to 500 |
| CCO[C@H]1C[C@@]2(C)[C@@H](CC[C@H]3[C@@H]4CC[C@H]([N+](=O)[O-])[C@@]4(C)CC(=O)[C@@H]32)C[C@@H]1O [Compound 123] | 50 to 100 |
| CC1(O)CC[C@H]2[C@@H]3CC[C@@H]4C[C@](C)(O)CC[C@@H]4[C@H]3CC[C@@]21C (stereo partly shown) [Compound 126] | > 500 |
